Data reported in article PMC11500593, “Molecular cloning and biochemical characterization of indole-3-acetic acid methyltransferase from Japanese star anise (Illicium anisatum)” (Plant Biotechnology, 2024).

Tested on: T1, IaIAMT
T1 construct: full-length cDNA from leaf RNA, N-terminal MBP fusion (pCold-MBP), E. coli BL21(DE3), purified on gelatinized corn starch; MBP cleavage not mentioned
Assay: radiochemical methyltransferase assay, […]-SAM, ethyl acetate extraction, scintillation counting
Type: biochemical, Illicium anisatum
Conditions: co-substrate [Me-14C]-SAM; sodium phosphate pH 7.0; 25°C; 10 min; IAA 0–400 µM; MBP fusion; read-out: apparent Km

`O=C(O)Cc1c[nH]c2ccccc12` [IAA, indole-3-acetic acid] was tested, and the Km was 122 ± 32.9 µM.
